Results from ChEMBL document CHEMBL1137199, “Estrogen receptor ligands. Part 8: Dihydrobenzoxathiin SERAMs with heteroatom-substituted side chains” (Bioorg Med Chem Lett, 2004).

How the values were obtained:
Estrogen receptor = target: T1, Estrogen receptor (Homo sapiens, UniProt P03372)
T1 sequence (P03372 whole entry): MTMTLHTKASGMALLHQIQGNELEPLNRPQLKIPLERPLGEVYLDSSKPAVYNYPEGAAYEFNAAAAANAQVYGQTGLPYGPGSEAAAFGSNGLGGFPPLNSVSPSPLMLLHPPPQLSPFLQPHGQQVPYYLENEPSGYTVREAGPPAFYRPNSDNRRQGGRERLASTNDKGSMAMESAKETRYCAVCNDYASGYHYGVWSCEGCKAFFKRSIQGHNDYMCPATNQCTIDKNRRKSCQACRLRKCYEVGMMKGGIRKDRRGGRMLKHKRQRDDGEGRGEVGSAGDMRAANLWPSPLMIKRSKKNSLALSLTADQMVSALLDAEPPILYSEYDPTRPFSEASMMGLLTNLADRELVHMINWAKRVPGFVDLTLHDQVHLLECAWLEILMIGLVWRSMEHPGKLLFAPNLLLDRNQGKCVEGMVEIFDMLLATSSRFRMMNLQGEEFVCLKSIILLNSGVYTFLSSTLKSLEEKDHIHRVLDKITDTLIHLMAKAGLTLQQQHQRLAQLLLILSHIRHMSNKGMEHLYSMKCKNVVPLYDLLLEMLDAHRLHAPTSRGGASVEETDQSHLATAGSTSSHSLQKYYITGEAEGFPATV

Estrogen receptor beta = Estrogen receptor beta (Homo sapiens, UniProt Q92731)
MCF7 = experiment: cells; conditions: Homo sapiens

Sequence of Estrogen receptor beta (Q92731 whole entry): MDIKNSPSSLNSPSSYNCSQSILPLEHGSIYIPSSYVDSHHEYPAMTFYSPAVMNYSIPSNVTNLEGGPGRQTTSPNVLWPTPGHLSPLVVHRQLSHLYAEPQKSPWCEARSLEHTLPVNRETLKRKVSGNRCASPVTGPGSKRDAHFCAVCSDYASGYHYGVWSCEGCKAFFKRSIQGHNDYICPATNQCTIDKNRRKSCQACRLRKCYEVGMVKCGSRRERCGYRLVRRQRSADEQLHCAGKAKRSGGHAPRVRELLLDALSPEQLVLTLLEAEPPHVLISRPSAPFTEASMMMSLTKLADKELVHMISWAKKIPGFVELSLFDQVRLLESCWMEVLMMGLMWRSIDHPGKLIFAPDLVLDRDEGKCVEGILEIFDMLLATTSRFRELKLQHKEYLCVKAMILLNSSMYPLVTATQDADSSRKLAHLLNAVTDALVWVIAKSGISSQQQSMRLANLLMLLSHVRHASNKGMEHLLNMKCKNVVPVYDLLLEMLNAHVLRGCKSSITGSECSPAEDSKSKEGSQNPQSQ

Oc1ccc([C@H]2Sc3cc(O)ccc3O[C@H]2c2ccc(OCCN3CCC(F)CC3)cc2)cc1
IC50 (Estrogen receptor): 0.0025 µM
IC50 (Estrogen receptor beta): 0.116 µM

Oc1ccc([C@H]2Sc3cc(O)ccc3O[C@H]2c2ccc(OCCN3CCC(O)CC3)cc2)cc1
IC50 (MCF7): 0.0075 µM
IC50 (Estrogen receptor): 0.0018 µM
IC50 (Estrogen receptor beta): 0.331 µM

OCC1CCN(CCOc2ccc([C@@H]3Oc4ccc(O)cc4S[C@@H]3c3ccc(O)cc3)cc2)CC1
IC50 (MCF7): 0.0113 µM
IC50 (Estrogen receptor): 0.0022 µM
IC50 (Estrogen receptor beta): 0.436 µM

NC(=O)C1CCN(CCOc2ccc([C@@H]3Oc4ccc(O)cc4S[C@@H]3c3ccc(O)cc3)cc2)CC1
IC50 (MCF7): 0.021 µM
IC50 (Estrogen receptor): 0.0022 µM
IC50 (Estrogen receptor beta): 0.366 µM

Oc1ccc([C@H]2Sc3cc(O)ccc3O[C@H]2c2ccc(OCCN3CC[C@@H](F)C3)cc2)cc1
IC50 (MCF7): 0.0038 µM
IC50 (Estrogen receptor): 0.0005 µM
IC50 (Estrogen receptor beta): 0.059 µM

Oc1ccc([C@H]2Sc3cc(O)ccc3O[C@H]2c2ccc(OCCN3CC[C@@H](O)C3)cc2)cc1
IC50 (MCF7): 0.0006 µM
IC50 (Estrogen receptor): 0.0017 µM
IC50 (Estrogen receptor beta): 0.081 µM

O=S1(=O)CCN(CCOc2ccc([C@@H]3Oc4ccc(O)cc4S[C@@H]3c3ccc(O)cc3)cc2)CC1
IC50 (MCF7): 0.0263 µM
IC50 (Estrogen receptor): 0.002 µM
IC50 (Estrogen receptor beta): 0.247 µM

Oc1ccc([C@H]2Sc3cc(O)ccc3O[C@H]2c2ccc(OCCN3CCC4(CC3)OCCO4)cc2)cc1
IC50 (MCF7): 0.0423 µM
IC50 (Estrogen receptor): 0.002 µM
IC50 (Estrogen receptor beta): 0.267 µM

OC[C@@H]1CCCN1CCOc1ccc([C@@H]2Oc3ccc(O)cc3S[C@@H]2c2ccc(O)cc2)cc1
IC50 (MCF7): 0.0019 µM
IC50 (Estrogen receptor): 0.0039 µM
IC50 (Estrogen receptor beta): 0.081 µM

OC[C@H]1CCCN1CCOc1ccc([C@@H]2Oc3ccc(O)cc3S[C@@H]2c2ccc(O)cc2)cc1
IC50 (MCF7): 0.0032 µM
IC50 (Estrogen receptor): 0.002 µM
IC50 (Estrogen receptor beta): 0.134 µM

Oc1ccc([C@H]2Sc3cc(O)ccc3O[C@H]2c2ccc(OCCN3CCSCC3)cc2)cc1
IC50 (MCF7): 0.0156 µM
IC50 (Estrogen receptor): 0.0015 µM
IC50 (Estrogen receptor beta): 0.072 µM

OCCC1CCN(CCOc2ccc([C@@H]3Oc4ccc(O)cc4S[C@@H]3c3ccc(O)cc3)cc2)CC1
IC50 (MCF7): 0.0425 µM
IC50 (Estrogen receptor): 0.0073 µM
IC50 (Estrogen receptor beta): 1.11 µM

Oc1ccc([C@H]2Sc3cc(O)ccc3O[C@H]2c2ccc(OCCN3CCC(F)(F)CC3)cc2)cc1
IC50 (MCF7): 0.042 µM
IC50 (Estrogen receptor): 0.016 µM
IC50 (Estrogen receptor beta): 0.275 µM
